Results on 16 compounds are retold here after US11230544B1, “Substituted 1,3,4-thiadiazoles as GLS1 inhibitors” (MEDSHINE DISCOVERY INC., priority 2018, dated 2022).

Usually bioavailability stands for the share of a dose that reaches the circulation, judged against a reference dose that is usually intravenous. A lower bioavailability goes with poor availability. By AUC(0-inf) is commonly meant total exposure, with the tail of the curve extrapolated. The low end stands for low exposure, the high end for high exposure. By IC50 is commonly meant the concentration at which inhibition is half-maximal. A low value points to inhibition by little substance.

The nature of series [1]: Pharmacokinetic evaluation of compounds in mice. Conditions: mouse, plasma, female C57BL/6 mice; for bioavailability: oral, gavage vs intravenous; for half-life: tail intravenous injection and gavage, read-out: T1/2 (half-life) (converted); for half-life / AUC(0-inf) / Cmax: route not given; for Cmax: read-out: Cmax (peak concentration). Format: in vivo. Here is the method:
Experimental Example 2: Pharmacokinetic Evaluation of Compounds
Objective: To test the in vivo pharmacokinetics of the compounds in mice
C57BL/6 mice (female, 7-9 weeks old, Shanghai SLAC)
Experiment operations: The clear solution obtained by dissolving the test compound was administered to female C57BL/6 mice (overnight fasting, 7-9 weeks old) via tail intravenous injection and gavage, respectively. After administration of the test compound or the control compound, blood was collected from the mandibular vein of the intravenous injection group at 0.0833, 0.25, 0.5, 1, 2, 4, 6, 8 and 24 hours, and of the gavage group at 0.0833, 0.25, 0.5, 1, 2, 4, 6, 8 and 24 hours, respectively, and centrifuged to obtain plasma. The LC-MS/MS method was used to determine the blood drug concentration, and the WinNonlin™ Version 6.3 pharmacokinetic software was used to calculate the relevant pharmacokinetic parameters by the non-compartmental model linear logarithmic trapezoidal method.

The target of series [2] is T1, GLS1 (Homo sapiens, UniProt O94925).
T1 sequence (O94925 73-669 limits assumed): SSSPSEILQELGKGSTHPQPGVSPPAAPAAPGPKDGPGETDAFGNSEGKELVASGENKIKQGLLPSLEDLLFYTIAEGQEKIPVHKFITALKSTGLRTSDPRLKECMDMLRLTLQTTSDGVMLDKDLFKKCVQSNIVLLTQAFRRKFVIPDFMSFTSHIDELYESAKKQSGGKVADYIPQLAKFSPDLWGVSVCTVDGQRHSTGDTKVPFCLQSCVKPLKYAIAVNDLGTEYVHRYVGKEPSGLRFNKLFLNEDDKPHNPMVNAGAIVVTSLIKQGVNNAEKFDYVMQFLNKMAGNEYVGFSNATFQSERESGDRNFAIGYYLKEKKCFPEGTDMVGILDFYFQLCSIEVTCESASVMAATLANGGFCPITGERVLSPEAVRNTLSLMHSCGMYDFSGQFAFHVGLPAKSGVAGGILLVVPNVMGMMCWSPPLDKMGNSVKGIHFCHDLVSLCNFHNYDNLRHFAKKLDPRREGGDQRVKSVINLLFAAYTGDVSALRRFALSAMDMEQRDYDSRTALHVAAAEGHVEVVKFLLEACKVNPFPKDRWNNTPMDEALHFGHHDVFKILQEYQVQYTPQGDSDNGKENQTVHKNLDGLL
The experiment in a line: Activity test of compounds in a GLS1 coupling reaction system. Format: biochemical. Conditions: enzyme GLS1 2 nM, 4.5 mM L-glutamine, 1 hour preincubation at 23° C. Here is the method: Experimental Example 1: Activity Test of Compounds in a GLS1 Coupling Reaction System
The final concentration of each component in the final experimental buffer was 50 mM Tris-HCl pH 8.0, 0.25 mM EDTA, 150 mM K2HPO4, 0.1 mg/mL BSA, 1 mM DTT, and 0.01% o Triton X-100.
the 1× assay buffer was used to prepare “solution A” in the experiment (solution A contained L-glutamine, NAD+ and GLDH), and the final concentration of each component in the final experimental reaction system was 4.5 mM L-glutamine, 2 mM NAD+, and 4 U/mL GLDH; the 1× assay buffer was used to prepare “solution B” in the experiment—2× enzyme solution (solution B contained enzyme GLS1), and the final concentration of GLS1 in the final experimental reaction system was 2 nM.
The experiment plate was the plate prepared by Labcyte's ECHO that contained the gradient concentration of the compound and the corresponding DMSO solution before the experiment:
The experiment plate was taken out, and 20 μL of solution B (an enzyme GLS1 solution) was add to the 2nd to 23rd columns of the experiment plate, and then 20 μL of assay buffer was added to the 1st and 24th columns of the experiment plate, wherein the 1st and 24th columns were used as control groups of the experimental system; the plate was centrifuged at 1000 rpm for 30 seconds; the plate was sealed and incubated at 23° C. for 1 hour; I after 1 hour incubation, 20 μL of solution A was added to columns 1 to 24 of the experiment plate (i.e., addition of samples to the whole plate); the plate was centrifuged at 1000 […] for 30 seconds; the experiment plate was placed on SpectraMax 340PC, and read continuously for 20 minutes in the dynamic mode (the reading interval was set to 1 minute).

Series [3] concerns human myeloma RPMI-8226 cell. The experiment in a line: In vivo pharmacodynamic study, CB-17 SCID nude mouse subcutaneous xenograft model of human myeloma RPMI-8226 cell. On the set-up: species or system mouse xenograft of human cells. Particulars: for Tumor volume (mm^3) (Day 14): Mean ± SEM, PO, Poma 1 mg/kg QD, CB-839 or compound 2 100 mg/kg (D1-D10) 150 mg/kg (D11-D14) BID. The text has this:
Experimental Example 3 In Vivo Pharmacodynamic Study of a CB-17 SCID Nude Mouse Subcutaneous Xenograft Model of Human Myeloma RPMI-8226 Cell
Objective: Pomalidomide is used to treat multiple myeloma, and this experiment is used to study and evaluate the in vivo efficacy of the test compound combined with pomalidomide in the CB-17 SCID nude mouse subcutaneous xenograft model of human myeloma RPMI-8226 cell.
Experiment animals: female CB-17 SCID nude mice, 6 to 8 weeks old, with the body weigh of 18 to 22 grams; Supplier: Shanghai Lingchang Biological Technology Co., Ltd.
Human myeloma RPMI 8226 cells were cultured in a monolayer in vitro. The culture conditions were: RPMI 1640 medium (brand: gibco—22400089, batch: 1894220) supplemented with 10% fetal bovine serum, 100 U/mL penicillin and 100 μg/mL streptomycin, at 37° C. and 5% CO2. Conventional digestion treatment with pancreatin-EDTA for passage was carried out twice a week. When the cell confluence reached 80% to 90%, the cells were harvested, counted and inoculated.
0.2 mL (6×10^6 cells) of RPMI 8226 cells (supplemented with matrigel in a volume ratio of 1:1) were subcutaneously inoculated on the right back of each mouse. The grouping and administration were started when the average tumor volume reached 374 mm^3.
The test compound (compound 2) was formulated into a clear solution of 10 mg/mL, and the solvent was a 10 mM citric acid buffer containing 0.2% Tween-80 and 25% hydroxypropyl-β-cyclodextrin, pH=4. CB-839 was formulated into a clear solution of 10 mg/mL, and the solvent was a 10 mM citric acid buffer containing 25% hydroxypropyl-β-cyclodextrin, pH=2.2. Pomalidomide (Poma) was formulated into a clear solution of 0.1 mg/mL, and the solvent was 20% PEG400+80% (20% hydroxypropyl-β-cyclodextrin).
The experimental index was to investigate whether the tumor growth was inhibited, delayed or cured. Tumor diameter was measured twice a week with a vernier caliper. The calculation formula of tumor volume was V=0.5a×b^2, wherein a and b represented the long and short diameters of the tumor, respectively.
The anti-tumor efficacy of the compound was evaluated by TGI (%) or relative tumor proliferation rate T/C (%). TGI (%) reflected the tumor growth inhibition rate. Calculation of TGI (%): TGI (%)=[1−(average tumor volume at the end of administration in a treatment group−average tumor volume at the beginning of administration in this treatment group)/(average tumor volume at the end of administration in the solvent control group-average tumor volume at the beginning of administration in the solvent control group)]×100%.
Relative tumor proliferation rate T/C (%): the calculation formula was as follows: T/C %=TRTV/CRTV×100% (TRTV: mean RTV of the treatment group; CRTV: mean RTV of the negative control group). The relative tumor volume (RTV) was calculated according to the results of the tumor measurement. The calculation formula was RTV=Vt/V0, where V0 was the tumor volume measured at beginning of the grouping and administration (i.e., d0), and Vt was the tumor volume at the time of a certain measurement. TRTV and CRTV were obtained from the data on the same day.
Statistical analysis included mean value and standard error (SEM) of the tumor volume of each group at each time point (see Table 4 for specific data). […] The comparison between two groups was analyzed by T-test, and the comparison between three or more groups was analyzed by one-way ANOVA.
Statistical analysis of synergy: method for calculating Q value (also known as King's formula method) was as follows: Q=TGIA+B/(TGIA+TGIB−TGIA×TGIB). TGIA, TGIB and TGIA+B were the tumor inhibition rates when drug A was used alone, drug B was used alone, and drug A and drug B were used in combination, respectively.
In the experiment, the effect of the test compound on the weight of the animal was investigated. […]
Background: In xenograft studies the graft and the host belong to different species.

Counter-ions that a name gives are not always drawn.

On to `O=C(Cc1cccc(OC(F)(F)F)c1)Nc1ccc(CCCCc2nnc(NC(=O)Cc3ccccn3)s2)nn1` [CB-839, reference compound], for which, in series [1], the bioavailability was found to be 27.1%, the half-life is 4.69 h, the area under the curve AUC(0-inf) is 27.7 µM·h and the Cmax is 18.1 µM.

For the compound `COC(C(=O)Nc1nnc(NC2CC=C(c3cccnn3)CC2)s1)c1cc(OC(F)(F)F)ccc1F` (single isomer, unassigned) [Compound 1], half-maximal inhibition in series [2] (IC50) was put at 0.132 µM.

Turning to `COC(C(=O)Nc1nnc(N[C@H]2CC[C@@H](c3cccnn3)CC2)s1)c1cccc(OC(F)F)c1` (stereo partly shown) [Compound 11 (trifluoroacetate salt)], the IC50 in series [2] was found to be 0.72 µM.

`CO[C@H](C(=O)Nc1nnc(NC2CC=C(c3ccc(N)nn3)CC2)s1)c1cc(OC(F)(F)F)ccc1F` (stereo partly shown) [Compound 7 (hydrochloride salt)]: half-maximal inhibition in series [2] (IC50) was put at 0.133 µM.

Regarding `CO[C@H](C(=O)Nc1nnc(NC2CCC(c3cc4cc[nH]c4nn3)CC2)s1)c1cc(OC(F)(F)F)ccc1F` (stereo partly shown) [Compound 14], the IC50 in series [2] was 0.757 µM.

`CO[C@H](C(=O)Nc1nnc(NC2CCC(c3cc(C(=O)O)cnn3)CC2)s1)c1cc(OC(F)(F)F)ccc1F` (stereo partly shown) [Compound 6 (hydrochloride salt)]: inhibition in series [2] was half-maximal at 1.69 µM (IC50).

For `COC(C(=O)Nc1nnc(NC2CCC(c3cccnn3)CC2)s1)c1cc(OC(F)(F)F)ccc1F` (single isomer, unassigned) [Compound 4], in series [2], the IC50 was found to be 4.9 µM.

The compound `COC(C(=O)Nc1nnc(NC2CC=C(c3cccnn3)CC2)s1)c1cc(OC(F)(F)F)ccc1F` (single isomer, unassigned) [Compound 2] yielded a 50% inhibitory concentration (IC50) in series [2] of 0.0965 µM. In addition, in series [1], the bioavailability worked out at 34.8%, the half-life was 3.93 h, the AUC(0-inf) was 134 µM·h and the Cmax was 36.8 µM.

Regarding `Nc1cccc2c1C(=O)N(C1CCC(=O)NC1=O)C2=O` (stereo not shown) [Poma, Pomalidomide], the “Tumor volume (mm^3) (Day 14)” value is reported as 1542 ± 259 mm^3 in series [3] (Day 14 after administration) and 1,542 mm^3 in series [3] (Day 14 after administration, listed as pomalidomide). Also, the “anti-tumor effect compared with the solvent control group” value in series [3] (Day 14 after administration, result in words) is on record as “no significant anti-tumor effect”. Besides, the “T/C (%)” value in series [3] (relative tumor proliferation rate, Day 14, vs solvent control group) came to 68.8%. In addition, the “RTV (Day 14)” value in series [3] (relative tumor volume Vt/V0, Day 14, same dosing as tumor volume) is given as 4.22 ± 0.50. Further, the “TGI (%)” value in series [3] (tumor growth inhibition rate, Day 14, vs solvent control group) is 34.0%.

In series [2], `CO[C@H](C(=O)Nc1nnc(N[C@H]2CC[C@@H](c3cccnn3)CC2)s1)c1ccccc1` [Compound 10 (hydrochloride salt)] returned an IC50 of 1.59 µM.

In turn, `CO[C@H](C(=O)Nc1nnc(NC2CC=C(c3cc4cc[nH]c4nn3)CC2)s1)c1cc(OC(F)(F)F)ccc1F` (stereo partly shown) [Compound 13 (trifluoroacetate salt)] showed an IC50 in series [2] of 0.18 µM.

In turn, `COc1cccc(C(OC)C(=O)Nc2nnc(N[C@H]3CC[C@@H](c4cccnn4)CC3)s2)c1` (stereo partly shown) [Compound 8 (trifluoroacetate salt)] gave an IC50 in series [2] of 0.577 µM.

Take `COC(C(=O)Nc1nnc(NC2CCC(c3cccnn3)CC2)s1)c1cc(OC(F)(F)F)ccc1F` (single isomer, unassigned) [Compound 3]: the IC50 in series [2] worked out at 0.17 µM.

In the case of `CO[C@H](C(=O)Nc1nnc(NC2CCC(c3cc(C)cnn3)CC2)s1)c1cc(OC(F)(F)F)ccc1F` (stereo partly shown) [Compound 5 (hydrochloride salt)], the IC50 in series [2] is 0.469 µM.

On to `COc1cc(C(OC)C(=O)Nc2nnc(N[C@H]3CC[C@@H](c4cccnn4)CC3)s2)ccc1F` (stereo partly shown) [Compound 12 (trifluoroacetate salt)], for which the 50% inhibitory concentration (IC50) in series [2] is 4.71 µM.

In series [2], `COC(C(=O)Nc1nnc(N[C@H]2CC[C@@H](c3cccnn3)CC2)s1)c1cccc(OC(F)(F)F)c1` (stereo partly shown) [Compound 9 (hydrochloride salt)] registered an IC50 of 0.502 µM.
